Laboratory results from ChEMBL document CHEMBL6092203, “Discovery of Novel PROTAC-Based HPK1 Degraders with High Potency and Selectivity for Cancer Immunotherapy” (J Med Chem, 2024).
The source made the active and inactive calls. No cut-off for these calls is given here.

How the values were obtained:
[1] = Tmax in female Sprague-Dawley rat at 2 mg/kg/day, po measured at day 14; assay type: ADME, organism-based; conditions: in vivo, time 14 day
[2] = molecular target: Mitogen-activated protein kinase kinase kinase kinase 4 (Homo sapiens) (UniProt O95819); test: Induction of HGK degradation in human Jurkat cells at 1 to 1000 nM incubated for 24 hrs by Western blotting analysis; assay type: cell-based; conditions: dose 1-1000 nM
Chain of Mitogen-activated protein kinase kinase kinase kinase 4 (Homo sapiens) (O95819 2-1239 limits assumed): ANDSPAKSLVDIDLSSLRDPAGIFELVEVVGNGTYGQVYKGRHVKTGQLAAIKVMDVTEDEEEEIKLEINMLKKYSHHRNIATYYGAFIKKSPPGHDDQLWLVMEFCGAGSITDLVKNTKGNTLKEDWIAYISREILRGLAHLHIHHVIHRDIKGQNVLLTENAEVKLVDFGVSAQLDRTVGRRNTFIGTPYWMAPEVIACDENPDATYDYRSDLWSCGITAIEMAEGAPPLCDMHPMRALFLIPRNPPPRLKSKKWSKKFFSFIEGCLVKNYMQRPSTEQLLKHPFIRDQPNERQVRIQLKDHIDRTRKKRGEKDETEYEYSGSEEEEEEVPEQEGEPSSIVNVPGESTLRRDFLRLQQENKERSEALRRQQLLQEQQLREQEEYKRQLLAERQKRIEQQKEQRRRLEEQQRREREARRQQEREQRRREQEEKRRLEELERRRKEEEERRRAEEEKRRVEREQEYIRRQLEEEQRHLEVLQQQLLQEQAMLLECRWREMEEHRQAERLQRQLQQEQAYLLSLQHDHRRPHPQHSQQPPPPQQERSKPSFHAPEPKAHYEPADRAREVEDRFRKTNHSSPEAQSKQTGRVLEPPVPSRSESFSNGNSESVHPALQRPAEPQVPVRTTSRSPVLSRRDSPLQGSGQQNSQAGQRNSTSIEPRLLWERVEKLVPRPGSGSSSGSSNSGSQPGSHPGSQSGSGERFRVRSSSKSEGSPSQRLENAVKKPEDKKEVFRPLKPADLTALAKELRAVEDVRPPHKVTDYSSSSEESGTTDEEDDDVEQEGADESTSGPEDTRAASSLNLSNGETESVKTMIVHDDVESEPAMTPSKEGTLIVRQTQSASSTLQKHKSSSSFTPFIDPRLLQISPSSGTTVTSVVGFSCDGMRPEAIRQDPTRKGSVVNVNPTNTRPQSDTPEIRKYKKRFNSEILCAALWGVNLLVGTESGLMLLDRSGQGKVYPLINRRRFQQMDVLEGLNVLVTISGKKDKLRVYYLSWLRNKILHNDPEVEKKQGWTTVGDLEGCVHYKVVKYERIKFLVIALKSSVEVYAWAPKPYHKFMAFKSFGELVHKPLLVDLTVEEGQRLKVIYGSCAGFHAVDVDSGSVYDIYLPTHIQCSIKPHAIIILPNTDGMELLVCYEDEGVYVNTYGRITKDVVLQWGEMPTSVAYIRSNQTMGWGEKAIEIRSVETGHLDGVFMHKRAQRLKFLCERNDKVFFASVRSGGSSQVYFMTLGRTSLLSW

in vivo [3] = conditions: male, Sprague-Dawley, rat, po, 2 mg/kg
in vivo [4] = conditions: male, Sprague-Dawley, rat, po, 100 mg/kg
Jurkat [5] = test: Induction of p-SLP76 at Ser376 protein degradation in human Jurkat cells incubated for 24 hrs by Western blotting analysis relative to control; assay type: cell-based
in vivo [6] = conditions: female, Sprague-Dawley, rat, po, 30 mg/kg
[7] = Drug metabolism in mouse hepatocytes assessed as phase 2 metabolites formation at 10 uM incubated for 120 mins by UHPLC-UV/MS/MS method; assay type: ADME, cell-based, Hepatocyte; conditions: 2 h
[8] = molecular target: T1, Protein cereblon/Mitogen-activated protein kinase kinase kinase kinase 1 (Homo sapiens, UniProt Q92918+Q96SW2); test: PROTAC activity at CRBN/HPK1 in human Jurkat cells assessed as HPK1 degradation at 0.01 uM measured after 24 hrs by Western blotting analysis; assay type: cell-based
T1 sequence (Q92918 whole entry, looked up): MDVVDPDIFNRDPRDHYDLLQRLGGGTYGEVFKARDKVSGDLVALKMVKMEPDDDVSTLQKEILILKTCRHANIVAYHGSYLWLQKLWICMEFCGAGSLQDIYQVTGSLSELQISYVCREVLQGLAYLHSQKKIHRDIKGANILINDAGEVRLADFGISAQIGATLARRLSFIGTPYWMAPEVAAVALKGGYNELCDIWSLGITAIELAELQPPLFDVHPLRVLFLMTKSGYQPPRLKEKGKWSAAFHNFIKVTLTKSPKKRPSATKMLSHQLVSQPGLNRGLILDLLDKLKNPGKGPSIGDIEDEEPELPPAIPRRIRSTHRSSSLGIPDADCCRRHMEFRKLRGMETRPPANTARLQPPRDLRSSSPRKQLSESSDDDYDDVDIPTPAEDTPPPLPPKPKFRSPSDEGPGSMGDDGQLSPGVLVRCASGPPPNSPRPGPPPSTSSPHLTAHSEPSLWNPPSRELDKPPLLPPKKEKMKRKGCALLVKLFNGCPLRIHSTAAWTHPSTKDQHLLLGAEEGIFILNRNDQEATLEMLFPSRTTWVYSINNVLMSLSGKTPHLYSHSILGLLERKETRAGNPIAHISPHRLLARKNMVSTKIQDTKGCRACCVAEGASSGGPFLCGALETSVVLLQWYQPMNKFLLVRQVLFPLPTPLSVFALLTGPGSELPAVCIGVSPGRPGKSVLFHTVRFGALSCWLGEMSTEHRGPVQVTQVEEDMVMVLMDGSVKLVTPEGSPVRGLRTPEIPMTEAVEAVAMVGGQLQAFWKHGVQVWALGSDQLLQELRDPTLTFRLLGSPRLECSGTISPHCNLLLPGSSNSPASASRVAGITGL
T1 sequence (Q96SW2 whole entry, looked up): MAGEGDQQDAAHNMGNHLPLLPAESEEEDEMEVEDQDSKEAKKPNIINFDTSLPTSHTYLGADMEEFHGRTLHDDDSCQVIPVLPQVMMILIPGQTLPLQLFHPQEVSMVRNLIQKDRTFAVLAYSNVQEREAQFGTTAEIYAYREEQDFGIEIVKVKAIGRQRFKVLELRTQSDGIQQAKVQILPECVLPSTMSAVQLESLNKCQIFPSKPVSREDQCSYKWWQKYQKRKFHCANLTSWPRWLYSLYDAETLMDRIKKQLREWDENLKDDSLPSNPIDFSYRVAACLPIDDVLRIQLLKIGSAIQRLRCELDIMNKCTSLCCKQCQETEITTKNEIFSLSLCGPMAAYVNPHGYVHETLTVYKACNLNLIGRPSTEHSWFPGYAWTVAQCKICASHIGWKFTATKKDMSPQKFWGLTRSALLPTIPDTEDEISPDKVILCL

[9] = Metabolic stability in dog hepatocytes assessed as intrinsic clearance at 1 uM incubated for 90 mins by LC-MS/MS method; assay type: ADME, cell-based, Canis lupus familiaris, Hepatocyte; conditions: 1.5 h
MC-38 [10] = test: Antitumor activity against mouse MC38 cells implanted in C57BL/6J mouse assessed as reduction in tumor weight at 0.5 mg/kg, po BID administered for 3 to 4 weeks (reference value: 1.79 +/- 0.24 g); assay type: functional; conditions: time 3-4 weeks
MC-38 [11] = test: Antitumor activity against mouse MC38 cells implanted in C57BL/6J mouse assessed as reduction in tumor weight at 0.1 mg/kg, po BID administered for 3 to 4 weeks (reference value: 1.79 +/- 0.24 g); assay type: functional; conditions: time 3-4 weeks
MC-38 [12] = test: Synergistic antitumor activity against mouse MC38 cells implanted in C57BL/6J mouse assessed as reduction in tumor weight at 1 mg/kg, po bid administered for 3 to 4 weeks in presence of 5 mg/kg anti-PD1 and measured twice a week (reference value: 1.79 +/- 0.24 g); assay type: functional; conditions: time 3-4 weeks
MC-38 [13] = test: Synergistic antitumor activity against mouse MC38 cells implanted in C57BL/6J mouse assessed as reduction in tumor volume at 0.1 mg/kg, po bid administered for 3 to 4 weeks in presence of 5 mg/kg anti-PD1 and measured twice a week (reference value: 1549.22 +/- 217.92 mm3); assay type: functional; conditions: time 3-4 weeks
Cytochrome P450 2C19 = Cytochrome P450 2C19 (Homo sapiens, UniProt P33261); test: Inhibition of CYP2C19 in human liver microsomes using S-mephenytoin as substrate in presence of NADPH; assay type: ADME, Microsome
Chain of Cytochrome P450 2C19 (P33261 whole entry): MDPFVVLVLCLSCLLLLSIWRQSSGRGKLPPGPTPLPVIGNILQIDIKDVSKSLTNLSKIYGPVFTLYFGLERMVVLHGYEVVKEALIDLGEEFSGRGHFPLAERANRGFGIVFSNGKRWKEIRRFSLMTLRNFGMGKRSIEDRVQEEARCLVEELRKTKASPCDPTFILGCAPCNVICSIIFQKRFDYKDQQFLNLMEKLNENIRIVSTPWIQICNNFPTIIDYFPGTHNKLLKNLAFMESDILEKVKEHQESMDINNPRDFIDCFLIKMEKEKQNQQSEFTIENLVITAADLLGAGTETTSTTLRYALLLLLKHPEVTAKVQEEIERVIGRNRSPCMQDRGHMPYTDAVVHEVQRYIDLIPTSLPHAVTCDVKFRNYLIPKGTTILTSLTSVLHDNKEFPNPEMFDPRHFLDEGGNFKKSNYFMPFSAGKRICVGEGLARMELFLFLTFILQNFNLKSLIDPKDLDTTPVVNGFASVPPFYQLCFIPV

MC-38 [14] = test: Antitumor activity against mouse MC38 cells implanted in C57BL/6J mouse assessed as tumor weight inhibition rate at 0.1 mg/kg, po BID measured after 4 weeks; assay type: functional; design: scale not given: the % may be the effect or the level left
in vitro [15] = conditions: human, liver microsomes
[16] = Toxicity in Sprague-Dawley rat assessed as no observable adverse effect level measured after 14 days; conditions: in vivo, time 14 day
[17] = Tmax in C57BL/6J mouse at 10 mg/kg, po measured upto 24 hrs by LC-MS analysis; assay type: ADME, organism-based; conditions: in vivo
MC-38 [18] = test: Synergistic antitumor activity against mouse MC38 cells implanted in C57BL/6J mouse assessed as tumor growth inhibition at 0.1 mg/kg, po bid measured after 4 weeks in presence of 5 mg/kg anti-PD1 and measured twice a week; assay type: functional; conditions: MC-38, 672 h, read-out: TGI
in vitro [19] = conditions: dog, liver microsomes
Cytochrome P450 3A4 = Cytochrome P450 3A4 (Homo sapiens, UniProt P08684); test: Inhibition of CYP3A4 in human liver microsomes using testosterone as substrate in presence of NADPH; assay type: ADME, Microsome
Chain of Cytochrome P450 3A4 (P08684 whole entry): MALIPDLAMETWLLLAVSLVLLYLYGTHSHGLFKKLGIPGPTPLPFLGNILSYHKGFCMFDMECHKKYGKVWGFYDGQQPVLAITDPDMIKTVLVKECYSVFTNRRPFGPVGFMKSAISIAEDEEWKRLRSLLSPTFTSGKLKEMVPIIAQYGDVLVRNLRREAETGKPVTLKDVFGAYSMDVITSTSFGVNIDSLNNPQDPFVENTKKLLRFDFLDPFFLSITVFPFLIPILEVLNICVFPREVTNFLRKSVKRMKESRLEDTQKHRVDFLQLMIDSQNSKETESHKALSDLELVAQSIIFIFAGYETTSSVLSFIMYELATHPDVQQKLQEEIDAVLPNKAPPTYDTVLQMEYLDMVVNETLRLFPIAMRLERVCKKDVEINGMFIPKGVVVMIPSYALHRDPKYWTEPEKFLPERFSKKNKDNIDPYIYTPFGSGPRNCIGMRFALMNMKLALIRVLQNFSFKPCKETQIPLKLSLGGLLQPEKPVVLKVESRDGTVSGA

[20] = molecular target: T1, Protein cereblon/Mitogen-activated protein kinase kinase kinase kinase 1; test: PROTAC activity at CRBN/HPK1 in human Jurkat cells assessed as HPK1 degradation at 300 nM measured after 24 hrs by Western blotting analysis; assay type: cell-based
[21] = molecular target: T1, Protein cereblon/Mitogen-activated protein kinase kinase kinase kinase 1; test: PROTAC activity at CRBN/HPK1 in human Jurkat cells assessed as HPK1 degradation at 1 uM by Western blotting analysis; assay type: cell-based; conditions: time 4-72 hrs
Jurkat [22] = test: Induction of GCK degradation in human Jurkat cells at 1 to 1000 nM incubated for 24 hrs by Western blotting analysis; assay type: cell-based; conditions: dose 1-1000 nM
[23] = In vivo induction of phosphorylated SLP-76 degradation in C57BL/6J mouse spleen at 0.5 mg/kg administered as single dose and measured after 12 hrs; assay type: functional
[24] = Half-life in Sprague-Dawley rat at 2 mg/kg, iv measured upto 24 hrs by LC-MS analysis; conditions: in vivo
in vivo [25] = conditions: male, Sprague-Dawley, rat, po, 30 mg/kg
in vitro [26] = conditions: rat, liver microsomes
[27] = Clearance in Beagle dog at 1 mg/kg, iv measured upto 24 hrs by LC-MS analysis; conditions: in vivo
[28] = Half-life in Beagle dog at 5 mg/kg, po measured upto 24 hrs by LC-MS analysis; conditions: in vivo
MC-38 [29] = test: Synergistic antitumor activity against mouse MC38 cells implanted in C57BL/6J mouse assessed as tumor growth inhibition at 1 mg/kg, po bid measured after 4 weeks in presence of 5 mg/kg anti-PD1 and measured twice a week; assay type: functional; conditions: MC-38, 672 h, read-out: TGI
[30] = Toxicity in C57BL/6J mouse assessed as body weight loss at 0.1 to 0.5 mg/kg, po bid administered for 3 to 4 weeks; assay type: organism-based; conditions: in vivo, dose lower 0.1 mg/kg, time lower 3 weeks, dose upper 0.5 mg/kg, time upper 4 weeks
MC-38 [31] = test: Synergistic antitumor activity against mouse MC38 cells implanted in C57BL/6J mouse assessed as reduction in tumor volume at 0.5 mg/kg, po bid administered for 3 to 4 weeks in presence of 5 mg/kg anti-PD1 and measured twice a week (reference value: 1549.22 +/- 217.92 mm3); assay type: functional; conditions: time 3-4 weeks
Cytochrome P450 2D6 = Cytochrome P450 2D6 (Homo sapiens, UniProt P10635); test: Inhibition of CYP2D6 in human liver microsomes using dextromethorphan as substrate in presence of NADPH; assay type: ADME, Microsome
Chain of Cytochrome P450 2D6 (P10635 whole entry): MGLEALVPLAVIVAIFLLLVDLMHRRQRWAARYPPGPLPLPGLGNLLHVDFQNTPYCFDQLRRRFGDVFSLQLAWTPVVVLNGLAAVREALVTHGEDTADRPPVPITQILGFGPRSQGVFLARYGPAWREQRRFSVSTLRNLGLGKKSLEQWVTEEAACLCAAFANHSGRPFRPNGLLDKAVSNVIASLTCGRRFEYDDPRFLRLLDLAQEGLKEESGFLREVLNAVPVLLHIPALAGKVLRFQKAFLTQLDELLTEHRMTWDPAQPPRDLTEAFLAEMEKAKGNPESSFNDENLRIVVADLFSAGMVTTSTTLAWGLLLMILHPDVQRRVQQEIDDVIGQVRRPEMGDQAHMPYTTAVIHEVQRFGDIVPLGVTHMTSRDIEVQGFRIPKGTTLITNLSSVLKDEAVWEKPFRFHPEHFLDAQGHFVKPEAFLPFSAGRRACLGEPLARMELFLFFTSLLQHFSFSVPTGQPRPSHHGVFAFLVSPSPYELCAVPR

[32] = molecular target: T1, Protein cereblon/Mitogen-activated protein kinase kinase kinase kinase 1; test: PROTAC activity at CRBN/HPK1 in human Jurkat cells assessed as HPK1 degradation at 1 uM pretreated with MLN4924 for 4 hrs followed by compound addition and measured after 24 hrs by Western blotting analysis; assay type: cell-based
[33] = Tmax in female Sprague-Dawley rat at 30 mg/kg/day, po measured at day 14; assay type: ADME, organism-based; conditions: in vivo, time 14 day
[34] = AUC(0 to 24 hrs) in male Sprague-Dawley rat at 30 mg/kg/day, po measured at day 1; assay type: ADME, organism-based; conditions: in vivo, time 1 day

Tmax [1]: 6 h | Activity [2]: inactive | AUC at 336 h (in vivo [3]): 830 ng·h/mL | Cmax at 24 h (in vivo [4]): 8620 ng/mL | Cmax at 336 h (in vivo [6]): 4210 ng/mL | Drug metabolism [7]: metabolite_detected | Activity [8]: Active | CLH [9]: 3.33 µL/min/mg | IC50 (Cytochrome P450 2C19): > 10 µM | half-life at 0.75 h, 1 µM (in vitro [15]): > 5 h | Tmax [17]: 1 h | half-life at 0.75 h, 1 µM (in vitro [19]): 1.14 h | IC50 (Cytochrome P450 3A4): > 10 µM | Activity [20]: Active | Activity [21]: Time-dependent-effect | half-life at 24 h [24]: 2.86 h | AUC at 336 h (in vivo [25]): 38200 ng·h/mL | half-life at 0.75 h, 1 µM (in vitro [26]): 4.12 h | clearance at 24 h [27]: 17 mL/min/kg | half-life at 24 h [28]: 4.23 h | IC50 (Cytochrome P450 2D6): > 10 µM | Activity [32]: inactive | Tmax [33]: 8.67 h | AUC(0-t) at 24 h [34]: 38200 ng·h/mL
SMILES: O=C1CCN(c2cc(C(=O)N3CCC(CC4CCN(c5ccc(-c6cnc7[nH]cc(-c8cnn(CC(F)(F)F)c8)c7n6)cn5)CC4)CC3)ccc2Cl)C(=O)N1
Emax (Jurkat [5]): 82.1% | Activity (MC-38 [10]): 1.04 g | Activity (MC-38 [11]): 1.4 g | Activity (MC-38 [12]): 0.47 g | Activity (MC-38 [13]): 934.84 mm3 | Activity (MC-38 [14]): 21.84% | NOAEL at 336 h [16]: 100 mg/kg/day | inhibition in vivo at 0.1 mg/kg (MC-38 [18]): 39.7% | Activity (Jurkat [22]): inactive | Emax at 0.5 mg/kg [23]: 77.6% | inhibition in vivo at 1 mg/kg (MC-38 [29]): 78.2% | Activity [30]: Non-toxic | Activity (MC-38 [31]): 139.36 mm3
